The values that follow come from ChEMBL document CHEMBL6177960, “Rational design, optimization, and biological evaluation of novel pyrrolo-pyridone derivatives as potent and orally active Cbl-b inhibitors” (Eur J Med Chem, 2025).

The target in this assay is E3 ubiquitin-protein ligase CBL-B (Homo sapiens, UniProt Q13191). In words: Binding affinity to Cbl-b (unknown origin) assessed as inhibition constant incubated for 60 mins by TR-FRET assay.
Sequence of E3 ubiquitin-protein ligase CBL-B (Q13191 whole entry): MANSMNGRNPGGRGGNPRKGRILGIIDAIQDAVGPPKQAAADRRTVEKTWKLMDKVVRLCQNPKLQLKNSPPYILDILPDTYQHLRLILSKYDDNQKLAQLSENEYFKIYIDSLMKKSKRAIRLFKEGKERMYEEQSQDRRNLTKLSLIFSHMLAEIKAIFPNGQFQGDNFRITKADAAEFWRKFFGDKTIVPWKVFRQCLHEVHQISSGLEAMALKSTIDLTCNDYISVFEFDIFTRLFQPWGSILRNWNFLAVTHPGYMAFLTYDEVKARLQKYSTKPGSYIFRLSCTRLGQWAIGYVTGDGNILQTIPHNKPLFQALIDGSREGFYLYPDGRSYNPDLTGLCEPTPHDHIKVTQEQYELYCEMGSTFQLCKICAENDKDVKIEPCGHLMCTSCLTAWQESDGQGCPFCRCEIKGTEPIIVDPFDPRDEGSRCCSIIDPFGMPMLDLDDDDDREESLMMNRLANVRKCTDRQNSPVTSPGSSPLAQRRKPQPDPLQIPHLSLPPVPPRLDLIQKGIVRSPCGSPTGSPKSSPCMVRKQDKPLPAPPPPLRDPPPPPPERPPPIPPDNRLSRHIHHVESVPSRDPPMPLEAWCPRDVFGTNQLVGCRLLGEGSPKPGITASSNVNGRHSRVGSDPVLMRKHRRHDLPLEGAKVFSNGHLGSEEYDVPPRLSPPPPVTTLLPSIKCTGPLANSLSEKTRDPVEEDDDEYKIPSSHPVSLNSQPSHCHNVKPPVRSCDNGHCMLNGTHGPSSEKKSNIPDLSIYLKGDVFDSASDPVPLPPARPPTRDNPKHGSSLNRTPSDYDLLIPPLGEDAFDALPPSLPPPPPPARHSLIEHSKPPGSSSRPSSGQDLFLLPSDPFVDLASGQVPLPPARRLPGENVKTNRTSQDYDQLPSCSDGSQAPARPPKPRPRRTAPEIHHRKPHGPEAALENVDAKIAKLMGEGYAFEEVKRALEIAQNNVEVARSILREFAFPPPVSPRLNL
On to `CCN(Cc1cc2c(C(F)(F)F)cn(-c3cccc(C4(c5nncn5C)CCC4)c3)c(=O)c2[nH]1)CC(C)C`, for which the Ki turned out to be 2.87 nM. In the case of `CO[C@H]1C[C@@](c2cccc(-n3cc(C(F)(F)F)c4cc(CNC5(C)CCC5)[nH]c4c3=O)c2)(c2nncn2C)C1`, the Ki came out at 1.4 nM. The figure for `Cn1cnnc1C1(c2cccc(-n3cc(C(F)(F)F)c4cc(CN5CCCC6(CC6)C5)[nH]c4c3=O)c2)CCC1` is 1.82 nM. Regarding `Cn1cnnc1C1(c2cccc(-n3cc(C(F)(F)F)c4cc(CN5CCC[C@H]6C[C@H]65)[nH]c4c3=O)c2)CCC1`, the Ki turned out to be 2 nM. As for `Cn1cnnc1[C@]1(c2cccc(-n3cc(C(F)(F)F)c4cc(CNC5(C)CCC5)[nH]c4c3=O)c2)C[C@H](C)C1`, the Ki was determined as 0.86 nM.

For `C[C@H]1CCCN(Cc2cc3c(C(F)(F)F)cn(-c4cccc(C5(c6nncn6C)COC5)c4)c(=O)c3[nH]2)C1`, the Ki turned out to be 5.29 nM.

Turning to `Cn1cnnc1[C@]1(c2cccc(-n3cc(C(F)(F)F)c4cc(CN5CCCC6(CC6)C5)[nH]c4c3=O)c2)C[C@H](C)C1`, the Ki came to 1.32 nM.

Take `CO[C@H]1C[C@@](c2cccc(-n3cc(C(F)(F)F)c4cc(CN5CCCC6(CC6)C5)[nH]c4c3=O)c2)(c2nncn2C)C1`: the Ki is 2.29 nM. To `CCN(Cc1cc2c(C(F)(F)F)cn(-c3cccc([C@]4(c5nncn5C)C[C@@H](C)C4)c3)c(=O)c2[nH]1)CC(C)C` belongs 1.57 nM; to `C[C@H]1CCCN(Cc2cc3c(S(C)(=O)=O)cn(-c4cccc(C5(Cc6nncn6C)COC5)c4)c(=O)c3[nH]2)C1`, 14.2 nM; to `C[C@H]1CCCN(Cc2cc3c(C4CC4)cn(-c4cccc(C5(C(F)c6nncn6C)CC(F)(F)C5)c4)c(=O)c3[nH]2)C1` (some centres not stated), 2.34 nM.

With `CO[C@H]1C[C@](c2cccc(-n3cc(C(F)(F)F)c4cc(CNC5(C)CCC5)[nH]c4c3=O)c2)(c2nncn2C)C1`, the Ki came to 2.34 nM. As for `C[C@H]1CCCN(Cc2cc3c(C4CC4)cn(-c4cccc(C5(c6nncn6C)CC6(CC6)C5)c4)c(=O)c3[nH]2)C1`, the Ki was determined as 1.58 nM. Consider `Cn1cnnc1[C@]1(c2cccc(-n3cc(C(F)(F)F)c4cc(CN5CC6CC6C5)[nH]c4c3=O)c2)C[C@H](C)C1` (some centres not stated), for which the Ki was 0.86 nM. On to `C[C@H]1CCCN(Cc2cc3c(C(F)(F)F)cn(-c4cccc([C@]5(c6nncn6C)C[C@@H](F)C5)c4)c(=O)c3[nH]2)C1`, for which the Ki was determined as 1.25 nM. The figure for `C/C=C1\C[C@@](c2cccc(-n3cc(C(F)(F)F)c4cc(CN5CCC[C@H](C)C5)[nH]c4c3=O)c2)(c2nncn2C)C1` (some centres not stated) is 2.89 nM; for `C[C@H]1CCCN(Cc2cc3c(C(F)(F)F)cn(-c4cccc([C@]5(c6nncn6C)C[C@H](F)C5)c4)c(=O)c3[nH]2)C1` it is 1.41 nM; for `C[C@H]1CCCN(Cc2cc3c(C(F)(F)F)cn(-c4cccc(C5(Cc6nncn6C)CC(F)(F)C5)c4)c(=O)c3[nH]2)C1` it is 0.74 nM. Regarding `C[C@H]1CCCN(Cc2cc3c(C(F)(F)F)cn(-c4cccc(C5(Cc6nncn6C)COC5)c4)c(=O)c3[nH]2)C1`, the Ki was found to be 1.98 nM. To `CO[C@H]1C[C@](c2cccc(-n3cc(C(F)(F)F)c4cc(CN5CCC[C@H](C)C5)[nH]c4c3=O)c2)(c2nncn2C)C1` belongs 1.68 nM; to `CCN(CC)Cc1cc2c(C(F)(F)F)cn(-c3cccc([C@]4(c5nncn5C)C[C@@H](C)C4)c3)c(=O)c2[nH]1`, 0.97 nM.

On to `CCN(Cc1cc2c(C(F)(F)F)cn(-c3cccc([C@]4(c5nncn5C)C[C@@H](OC)C4)c3)c(=O)c2[nH]1)CC(C)C`, for which the Ki was 3.88 nM. With `C[C@H]1CCCN(Cc2cc3c(C4CC4)cn(-c4cccc(C5(Cc6nncn6C)CC(F)(F)C5)c4)c(=O)c3[nH]2)C1`, the Ki is 1.68 nM. On to `Cn1cnnc1C1(c2cccc(-n3cc(C(F)(F)F)c4cc(CN5CCC[C@@H]6C[C@@H]65)[nH]c4c3=O)c2)CCC1`, for which the Ki was 4.19 nM. The figure for `C[C@H]1CCCN(Cc2cc3c(C(F)(F)F)cn(-c4cccc(C5(c6nncn6C)CCC5)c4)c(=O)c3[nH]2)C1` is 1.02 nM; for `CCN(CC)Cc1cc2c(C(F)(F)F)cn(-c3cccc(C4(c5nncn5C)CCC4)c3)c(=O)c2[nH]1` it is 2.58 nM.

In the case of `CO[C@H]1C[C@@](c2cccc(-n3cc(C(F)(F)F)c4cc(CN5CC6CCC(C6)C5)[nH]c4c3=O)c2)(c2nncn2C)C1`, the Ki worked out at 0.82 nM.

For the compound `C[C@H]1CCCN(Cc2cc3c(C4CC4)cn(-c4cccc([C@@H](c5nncn5C)C5CCC5)c4)c(=O)c3[nH]2)C1`, the Ki turned out to be 38.2 nM. Regarding `Cc1cn(-c2cccc(C3(Cc4nncn4C)COC3)c2)c(=O)c2[nH]c(CN3CCC[C@H](C)C3)cc12`, the Ki was determined as 2.36 nM. `CO[C@H]1C[C@](c2cccc(-n3cc(C(F)(F)F)c4cc(CN5CC6CCC(C6)C5)[nH]c4c3=O)c2)(c2nncn2C)C1`: the Ki is 5.43 nM. Take `CO[C@H]1C[C@](c2cccc(-n3cc(C(F)(F)F)c4cc(CN5CCCC6(CC6)C5)[nH]c4c3=O)c2)(c2nncn2C)C1`: the Ki was determined as 9.3 nM. `Cn1cnnc1[C@]1(c2cccc(-n3cc(C(F)(F)F)c4cc(CN5CC6CCC(C6)C5)[nH]c4c3=O)c2)C[C@H](C)C1`: the Ki was 1.74 nM. To `C[C@H]1CCCN(Cc2cc3c(C(F)(F)F)cn(-c4cccc([C@H](c5nncn5C)C5CCC5)c4)c(=O)c3[nH]2)C1` belongs 0.83 nM. Take `Cn1cnnc1C1(c2cccc(-n3cc(C(F)(F)F)c4cc(CN5CC6CC6C5)[nH]c4c3=O)c2)CCC1` (configuration not stated): the Ki was found to be 2.34 nM. `C[C@H]1CCCN(Cc2cc3c(C4CC4)cn(-c4cccc(C5(Cc6nncn6C)COC5)c4)c(=O)c3[nH]2)C1`: the Ki was 1.43 nM. As to `CO[C@H]1C[C@@](c2cccc(-n3cc(C(F)(F)F)c4cc(CN5CCC[C@H](C)C5)[nH]c4c3=O)c2)(c2nncn2C)C1`, the Ki stood at 1.39 nM.

Turning to `C[C@H]1CCCN(Cc2cc3c(C(F)(F)F)cn(-c4cccc(C5(c6nncn6C)CC6(CC6)C5)c4)c(=O)c3[nH]2)C1`, the Ki came to 0.8 nM. Turning to `C[C@H]1CCCN(Cc2cc3c(C(F)(F)F)cn(-c4cccc([C@]5(c6nncn6C)C[C@@H](OC(F)(F)F)C5)c4)c(=O)c3[nH]2)C1`, the Ki was found to be 1.34 nM. In the case of `Cn1cnnc1[C@]1(c2cccc(-n3cc(C(F)(F)F)c4cc(CN5CCC[C@H]6C[C@H]65)[nH]c4c3=O)c2)C[C@H](C)C1`, the Ki came out at 1.16 nM.

Take `CC[C@H]1C[C@](c2cccc(-n3cc(C(F)(F)F)c4cc(CN5CCC[C@H](C)C5)[nH]c4c3=O)c2)(c2nncn2C)C1`: the inhibition constant (Ki) is 1.22 nM. The figure for `C[C@H]1CCCN(Cc2cc3c(C(F)(F)F)cn(-c4cccc([C@]5(c6nncn6C)C[C@H](OC(F)(F)F)C5)c4)c(=O)c3[nH]2)C1` is 1.54 nM; for `C[C@H]1CCCN(Cc2cc3ccn(-c4cccc(C5(Cc6nncn6C)COC5)c4)c(=O)c3[nH]2)C1` it is 18 nM; for `C[C@H]1CCCN(Cc2cc3c(Br)cn(-c4cccc(C5(Cc6nncn6C)COC5)c4)c(=O)c3[nH]2)C1` it is 2.79 nM. As to `CC[C@H]1C[C@@](c2cccc(-n3cc(C(F)(F)F)c4cc(CN5CCC[C@H](C)C5)[nH]c4c3=O)c2)(c2nncn2C)C1`, the Ki was determined as 1.14 nM. Regarding `Cn1cnnc1C1(c2cccc(-n3cc(C(F)(F)F)c4cc(CNC5(C)CCC5)[nH]c4c3=O)c2)CCC1`, the Ki was found to be 1.13 nM. `C[C@H]1CCCN(Cc2cc3c(C(F)(F)F)cn(-c4cccc([C@@H](c5nncn5C)C5CCC5)c4)c(=O)c3[nH]2)C1`: the Ki is 3.67 nM.

On to `Cn1cnnc1[C@]1(c2cccc(-n3cc(C(F)(F)F)c4cc(CN5CCC[C@@H]6C[C@@H]65)[nH]c4c3=O)c2)C[C@H](C)C1`, for which the Ki was determined as 1.81 nM. For the compound `C[C@H]1CCCN(Cc2cc3c(C(F)(F)F)cn(-c4cccc(-c5ccccc5-c5nncn5C)c4)c(=O)c3[nH]2)C1`, the Ki was 7.04 nM. The figure for `C[C@H]1CCCN(Cc2cc3c(C(F)(F)F)cn(-c4cccc(C5(c6nncn6C)CC(F)(F)C5)c4)c(=O)c3[nH]2)C1` is 1.18 nM; for `CO[C@H]1C[C@@](c2cccc(-n3cc(C(F)(F)F)c4cc(CN5CC6CC6C5)[nH]c4c3=O)c2)(c2nncn2C)C1` (some centres not stated) it is 3.01 nM. Turning to `C[C@H]1CCCN(Cc2cc3c(C4CC4)cn(-c4cccc([C@H](c5nncn5C)C5CCC5)c4)c(=O)c3[nH]2)C1`, the inhibition constant Ki turned out to be 1.4 nM. Turning to `CO[C@H]1C[C@](c2cccc(-n3cc(C(F)(F)F)c4cc(CN5CC6CC6C5)[nH]c4c3=O)c2)(c2nncn2C)C1` (some centres not stated), the inhibitory constant (Ki) came out at 5.45 nM.
